Counter-ions that a name gives are not always drawn.
Columns and labels:
human LDL [1] = test: Modification (peroxidation) of human LDL by copper sulphate, MDA production; assay type: biochemical; conditions: for IC50: inhibition of human LDL oxidation induced by copper sulphate (5.10^-6 M), 24 hours, MDA production, read-out: IC50 (M) Cu^2+ (converted); for activity compared with probucol or vitamin E in protecting human LDL: human LDL in vitro, modifications induced by copper sulphate and endothelial cells
Method: (§1) The activity of the compounds was tested in comparison with probucol and vitamin E taken as reference products.
1.1.1 Modification of LDL by copper sulphate
Human LDL are incubated for 24 hours in the presence of copper sulphate (5.10^-6 M) and in the absence or in the presence of the test compounds (10^-9 M to 10^-4 M).
After incubation, the peroxidation of the LDL is evaluated by agar gel electrophoresis and by the formation of one of the products of lipid peroxidation: malonic dialdehyde (MDA) (Parthasarathy S., Young S. G., Witztum J. L., Pittman R. C., and Steinberg D.; J. Clin. Invest. 77; 641-644, 1986).
(§2) The activity of the test compounds is evaluated by calculating the concentrations that reduce by 50% (IC50) the production of MDA compared with the control experiments without those compounds.

LDL of Watanabe rabbits = test: Ex vivo study: peroxidation by copper sulphate of LDL from orally treated Watanabe rabbits, MDA production; assay type: in vivo
Method: as §1
2.1 Materials and methods
Watanabe rabbits (genetically hyperlipidaemic rabbits) weighing from 3 kg to 5 kg are used. […]
After treatment, the LDL of the animals are prepared by ultracentrifugation and subjected to oxidation with copper sulphate (5.10^-6 M). The lipid peroxidation of the LDL is evaluated after various periods of incubation with copper sulphate (from 2 to 24 hours) by measuring the formation of MDA.
Table B groups the MDA production values according to the period of incubation with copper sulphate of the LDL originating from control animals and from animals treated with the compound of Example 1 at different doses or with probucol.

human LDL [2] = test: Modification (peroxidation) of human LDL by endothelial cells from the rabbit aorta, MDA production; assay type: cell-based; conditions: for IC50: inhibition of human LDL oxidation induced by endothelial cells (rabbit aorta), 24 hours, MDA production
Method: as §1
1.1.2 Modification of LDL by endothelial cells
Human LDL are incubated for 24 hours in the presence of endothelial cells from the rabbit aorta (RECL B4 line provided by Professor Steinberg, U.S.A), and in the absence or in the presence of the test compounds (10^-9 M to 10^-4 M).
After incubation, the peroxidation of the LDL is evaluated by agar gel electrophoresis and by the formation of one of the products of lipid peroxidation: malonic dialdehyde (MDA) (Steinbrecher U. P., Parthasarathy S., Leake D. S., Witztum J. L., and Steinberg D.; Proc. Nat. Acad. Sci. U.S.A 81, 3883-3887, 1984).
as §2

IC50 (human LDL [1]) [M] | IC50 (human LDL [2]) [nM] | Molecule | activity compared with probucol or vitamin E in protecting human LDL (human LDL [1]) | also measured
4e-08 |  | Cc1c(C)c2c(c(C)c1O)CCC(C)(/C=C\Cc1ccc(OC(C)(C)C(=O)O)cc1)O2 (racemic) [Example 15, Tert-butylamine (Z)-(R,S)-2-{4-3-(6-hydroxy-2,5,7,8-tetramethylchroman-2-yl)prop-2-en-1-yl!phenoxy}isobutyrate] |  | 
6e-08 |  | Cc1c(C)c2c(c(C)c1O)CCC(C)(CCCc1ccc(OC(C)(C)C(=O)O)cc1)O2 (racemic) [Example 18, Tert-butylamine (R,S)-2-{4-3-(6-hydroxy-2,5,7,8-tetramethylchroman-2-yl)propyl!phenoxy}isobutyrate] |  | 
5e-08 | 3 | CC(C)(Oc1ccc(CCSc2cc(C(C)(C)C)c(O)c(C(C)(C)C)c2)cc1)C(=O)O [Example 1, 2-{4-2-(3,5-di-tert-butyl-4-hydroxyphenylthio)ethyl!phenoxy}isobutyric acid] | greater activity | MDA production (LDL of Watanabe rabbits; 50 mg/kg/day orally, 3 days, 2 hours incubation of LDL with copper sulphate): 0.66 nmol/mg proteins; MDA production (LDL of Watanabe rabbits; 50 mg/kg/day orally, 3 days, 4 hours incubation of LDL with copper sulphate): 0.35 nmol/mg proteins; MDA production (LDL of Watanabe rabbits; 50 mg/kg/day orally, 3 days, 6 hours incubation of LDL with copper sulphate): 0.31 nmol/mg proteins; MDA production (LDL of Watanabe rabbits; 50 mg/kg/day orally, 3 days, 8 hours incubation of LDL with copper sulphate): 0.26 nmol/mg proteins; MDA production (LDL of Watanabe rabbits; 50 mg/kg/day orally, 3 days, 24 hours incubation of LDL with copper sulphate): 0.86 nmol/mg proteins; inhibition of LDL peroxidation induced by copper sulphate (LDL of Watanabe rabbits; from a dose of 50 mg/kg/day): completely inhibits; times more effective than is probucol (test using endothelial cells) (human LDL [2]; endothelial cells, compared with probucol): 1000 times
9e-08 |  | Cc1cc(SCCc2ccc(OC(C)(C)C(=O)O)cc2)c(C)c(C)c1O [Example 3, 2-{4-2-(4-hydroxy-2,3,5-trimethylphenylthio)ethyl!phenoxy}isobutyric acid] | greater activity | 
3e-08 |  | CC(C)(Oc1ccc(CSc2cc(C(C)(C)C)c(O)c(C(C)(C)C)c2)cc1)C(=O)O [Example 4, 2-4-(3,5-di-tert-butyl-4-hydroxyphenylthiomethyl)phenoxy!isobutyric acid] | greater activity | 
4e-08 |  | CC(C)(Oc1ccc(CCCSc2cc(C(C)(C)C)c(O)c(C(C)(C)C)c2)cc1)C(=O)O [Example 5, tert-butylamine salt of 2-{4-3-(3,5-di-tert-butyl-4-hydroxyphenylthio)propyl!phenoxy}isobutyric acid] | greater activity | 
5e-07 |  | Cc1cc(OCCc2ccc(OC(C)(C)C(=O)O)cc2)c(C)c(C)c1O [Example 9, 2-{4-2-(4-hydroxy-2,3,5-trimethylphenoxy)ethyl!phenoxy}isobutyric acid] |  | 
2e-08 | 7 | CC(C)(Oc1ccc(CCOc2cc(C(C)(C)C)c(O)c(C(C)(C)C)c2)cc1)C(=O)O [Example 10, 2-{4-2-(3,5-di-tert-butyl-4-hydroxyphenoxy)ethyl!phenoxy}isobutyric acid] |  | 
3e-06 | 4000 | CC(C)(Sc1cc(C(C)(C)C)c(O)c(C(C)(C)C)c1)Sc1cc(C(C)(C)C)c(O)c(C(C)(C)C)c1 [PROBUCOL, probucol, reference compound] |  | retardation of LDL peroxidation compared with control animals (LDL of Watanabe rabbits; 250 mg/kg/day): approximately 2 hours; MDA production (LDL of Watanabe rabbits; 250 mg/kg/day orally, 2 hours incubation of LDL with copper sulphate): 1.85 nmol/mg proteins; MDA production (LDL of Watanabe rabbits; 250 mg/kg/day orally, 4 hours incubation of LDL with copper sulphate): 3.50 nmol/mg proteins; MDA production (LDL of Watanabe rabbits; 250 mg/kg/day orally, 6 hours incubation of LDL with copper sulphate): 4.90 nmol/mg proteins; MDA production (LDL of Watanabe rabbits; 250 mg/kg/day orally, 8 hours incubation of LDL with copper sulphate): 12.26 nmol/mg proteins; MDA production (LDL of Watanabe rabbits; 250 mg/kg/day orally, 24 hours incubation of LDL with copper sulphate): 23.81 nmol/mg proteins
> 0.0001 | 4000 | vitamin E [reference compound] |  | 
